For test [1], the system named is A549 non-small-cell lung cancer cells. Description: Cytotoxicity by lactate dehydrogenase (LDH) release in A549 cells. The class given is cell-based, human. The settings on record: A549, 3 h treatment; lowest dose tested for which a toxicity greater than 20% was measured. The method, then: The effect of the compounds on the metabolism of a non-small-cell lung cancer cell line (A549) was tested using the Seahorse technology (XFe96, Agilent) and the cell death was evaluated by measuring the release of lactate dehydrogenase (LDH, Promega). The cells seeded into 96-well microplates (20 000 cells/well) were treated with the compounds as a dose response (0.03; 0.1; 0.3; 1; 3; 10 µM) for 3 h in serum-free DMEM medium and then mitochondrial respiration (OXPHOS) and glycolysis were measured in real time. At the end of the experiment, the culture supernatant was removed in order to analyze the cell death, and the number of cells was determined by counting, after labelling the cells with DAPI, using a fluorescence microscope (Zeiss). The number of cells per well at the end of the experiment was then used to normalize the results obtained by Seahorse.
The compound concentration indicated in the “toxicity” column represents the lowest dose tested for which a toxicity greater than 20% was measured.

Another test deals with T1, AIF/CHCHD4 (Homo sapiens, UniProt O95831).
T1 construct: The AIF103-613 protein (AIF protein fragment 103-613) and CHCHD4 protein were produced in BL21 + DE3 bacteria; made in house; host or cells: E. coli BL21 + DE3 (RIPL)
T1 sequence (O95831 103-613 limits assumed): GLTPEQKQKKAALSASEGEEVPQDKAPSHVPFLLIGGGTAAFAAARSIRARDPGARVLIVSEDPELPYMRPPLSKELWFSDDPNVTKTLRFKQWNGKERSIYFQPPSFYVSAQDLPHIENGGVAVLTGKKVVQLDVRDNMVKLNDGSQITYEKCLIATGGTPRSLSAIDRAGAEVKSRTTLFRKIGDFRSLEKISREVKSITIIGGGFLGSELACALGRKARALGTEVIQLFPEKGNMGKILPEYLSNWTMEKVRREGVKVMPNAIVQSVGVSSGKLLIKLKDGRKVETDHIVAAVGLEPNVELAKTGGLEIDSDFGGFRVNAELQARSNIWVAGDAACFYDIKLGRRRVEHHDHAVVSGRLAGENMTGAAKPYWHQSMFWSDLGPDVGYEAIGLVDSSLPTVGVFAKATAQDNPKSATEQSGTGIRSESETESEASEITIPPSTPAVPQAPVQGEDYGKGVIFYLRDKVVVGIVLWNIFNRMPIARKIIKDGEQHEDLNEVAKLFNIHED
Description: AlphaScreen (ALPHA) assay of the AIF103-613/CHCHD4 interaction. It is filed as binding. The source says: This method comprises the use: • of the AIF103-613 and CHCHD4 proteins previously produced; • of an AlphaScreen® kit (PerkinElmer) comprising donor beads and acceptor beads capable of conjugating to the AIF and CHCHD4 proteins; • of a positive control: the N27 peptide (corresponding to the 27 amino acids of the N-ter end of the CHCHD4 protein, as described in Hangen et al., 2015); • of a negative control: 0.1% bovine serum albumin (BSA) solution in phosphate buffered saline (PBS); • of a library of compounds to be tested: the Prestwick chemical compound library (Prestwick Chemical Library®) .
The ALPHA assay was first of all carried out at high throughput, using 384-well white microplates (Greiner, reference 781075), using 25 µl of total volume per well. The proteins, the positive control and the beads were diluted in a 0.1% BSA/PBS solution. All the distributions were carried out with an electronic multipipet, then the plates were centrifuged (200 g, 1 min). The plates were hermetically closed and incubated in the dark in a room at 23° C.
A library of 1280 small molecules, supplied by Prestwick Chemicals (Prestwick Chemical Library®) was screened. This library comprises compounds with various chemical and pharmacological properties, which are already approved by the health authorities, such as the FDA (Food and Drug Administration) or the EMEA (European Medicines Evaluation Agency). Each compound of the library is diluted in a 0.1% DMSO solution and used at a concentration of 10 µM. First of all, 5 µl of compound at […], of N27 at 3 µM (positive control) or of 0.1% BSA/PBS (negative control) were added to the wells. Secondly, 5 µl of AIF103-613 proteins were incubated with the compounds for 20 min before the addition of 5 µl of CHCHD4 for 2 h. Thirdly, 10 µl of a mixture of donor beads and acceptor beads at […] were incubated for 3 h. The analysis of the results was carried out by means of an EnSpire® multimode plate reader (PerkinElmer).
For each 384-well plate, 16 wells correspond to the positive control and 16 wells correspond to the negative control. The positive control corresponds to the measurement of the interaction of the AIF103-613 and CHCHD4 proteins in the presence of the N27 peptide (equivalent to the minimal signal). The negative control corresponds to the measurement of the interaction of the AIF103-613 and CHCHD4 proteins in the presence of the buffer (0.1% BSA/PBS) (equivalent to the maximum signal).
Following the high-throughput screening, the compounds are selected if the signal obtained in the presence of the compound is less than the following threshold TH:
For each compound previously selected, the ALPHA assay is repeated manually using another batch of powder of the compounds.
Each compound is tested at 10 µM and 30 µM due to the Hook effect particular to the ALPHAscreen technology and in order to select the compounds giving a signal located in the ascending part of the Hook bell and therefore active at low dose in a drug development perspective.
The compound is selected if: • the signal obtained in the presence of the compound is less than the threshold TH as described above; and • the signal obtained at 30 µM is less than the signal obtained at 10 µM.
In addition, for each compound thus selected, the dose-effect relationship of the compound is determined. This makes it possible to determine the median inhibitory concentration (IC50) of said compound.
(Bead proximity is the source of the signal in Alpha formats.)

The target of another test is T2, AIF103-613/CHCHD4 (Homo sapiens, UniProt O95831).
T2 construct: The AIF103-613 protein (AIF protein fragment 103-613) and CHCHD4 protein were produced in BL21 + DE3 bacteria; made in house; host or cells: E. coli BL21 + DE3 (RIPL)
T2 sequence (O95831 103-613 limits assumed): as above
Description: Surface plasmon resonance (SPR, Biacore) assay of the AIF/CHCHD4 interaction. The class given is binding. Conditions: compound preincubated 20 min with AIF, injected onto immobilized CHCHD4; criterion at least 50% of the inhibition obtained with N27 peptide. The method, then: FIG. 3: SPR analysis of the compounds identified by Alphascreen. (A) SPR validation of thioridazine and of mitoxantrone, by means of the […], as inhibitors of the AIF103-613/CHCHD4 interaction. The compounds at 10 µM were incubated for 20 min with AIF in DPBS at pH 7.4 at ambient temperature. Then, the mixture was then injected for 3 minutes at a rate of 30 µl per minute onto the CHCHD4 protein. The N27 peptide at 3 µM was used as a […]. (B) Surface plasmon resonance (SPR) sensorgrams, making it possible to follow the binding of AIF103-613 to CHCHD4 in the presence of thioridazine hydrochloride or of mitoxantrone dihydrochloride. The thioridazine hydrochloride and the mitoxantrone dihydrochloride were tested at increasing concentrations ranging from 0.5 µM to 50 µM.
Some of the compounds identified by means of the Alpha assay as described above were tested by surface plasmon resonance (Biacore™ T100, GE Healthcare Life Sciences). The CHCHD4 protein was immobilized covalently on a dextran matrix comprising COOH functional carboxyl groups (Series S CM5® sensor chip, GE Healthcare Life Sciences, 29149603). […]
The sensorgrams were analyzed using the BIAevaluation software (Version 2.0.4).
The inhibition of the interaction of the AIF and CHCHD4 proteins by thioridazine and mitoxantrone was analyzed by means of a surface plasmon resonance assay (cf. FIG. 3). […]

The target in test [2] is T3, AIF103-613 protein (AIF protein fragment 103-613) (human, UniProt O95831 103-613).
T3 construct: also called apoptosis-inducing factor
T3 sequence (O95831 103-613): as the sequence (O95831 103-613 limits assumed) above
Description: AlphaScreen cross-titration.

Setting [3] is: obtained manually using the Alphascreen assay, read-out: IC50 AIF/CHCHD4.

Where a name gives a salt, the structure may show the parent alone. Read-outs that look alike come from different tables or passages of the source.

Consider `COC(=O)C1=C(C)NC(C)=C(C(=O)OC2CCCN(Cc3ccccc3)C2)[C@@H]1c1cccc([N+](=O)[O-])c1` (stereo partly shown) [Benidipine hydrochloride], for which the Cellular toxicity in test [1] turned out to be 10 µM. Further, the IC50 on AIF/CHCHD4 (setting [3]) was determined as 8 µM. Turning to `COc1cc(-c2ccc(N=Nc3ccc4c(S(=O)(=O)O)cc(S(=O)(=O)O)c(N)c4c3O)c(OC)c2)ccc1N=Nc1ccc2c(S(=O)(=O)O)cc(S(=O)(=O)O)c(N)c2c1O` [Chicago sky blue 6B], on AIF/CHCHD4 (setting [3]), the IC50 was 1.44 µM. The molecule `CCN(CC)C(=S)SSC(=S)N(CC)CC` [Disulfiram] displayed a Cellular toxicity in test [1] of 3 µM. Moreover, the IC50 on AIF/CHCHD4 (setting [3]) was 0.415 µM.

`O=C1OC2(c3cc(Br)c(O)cc3Oc3c2cc(Br)c(O)[c]3[Hg][OH])c2ccccc21` (stereo not shown) [Merbromine] displayed an IC50 against AIF/CHCHD4 of 0.169 µM. Regarding `CO[C@H]1/C=C/O[C@@]2(C)Oc3c(C)c(O)c4c(O)c(c(/C=N/N5CCN(C6CCCC6)CC5)c(O)c4c3C2=O)NC(=O)/C(C)=C\C=C\[C@H](C)[C@H](O)[C@@H](C)[C@@H](O)[C@@H](C)[C@H](OC(C)=O)[C@@H]1C` [Rifapentine], the Cellular toxicity in test [1] is on record as 10 µM. In addition, the IC50 on AIF/CHCHD4 (setting [3]) was found to be 4.8 µM. In test [1], `NCCNCCNCCNCCN` [Tetraethylenepentamine pentahydrochloride] came in with a Cellular toxicity of 10 µM. Moreover, the IC50 at AIF/CHCHD4 (setting [3]) came to 9 µM. The like results for `CCSc1ccc2c(c1)N(CCCN1CCN(C)CC1)c1ccccc1S2.O=C(O)CC(O)C(=O)O.O=C(O)CC(O)C(=O)O` [Thiethylperazine dimalate] were, in that order, 10 µM and 10.6 µM. Regarding `CSc1ccc2c(c1)N(CCC1CCCCN1C)c1ccccc1S2` (stereo not shown) [Thioridazine hydrochloride], the Cellular toxicity in test [1] stood at 1 µM. Further, the IC50 at AIF/CHCHD4 (setting [3]) came to 24 µM. Also, on AIF103-613/CHCHD4, the “inhibition of the interaction between the AIF and CHCHD4 proteins (SPR)” value was “capable of inhibiting the interaction”. Bromocriptine mesylate showed a Cellular toxicity in test [1] of 3 µM. For the same molecule, at AIF/CHCHD4 (setting [3]), the IC50 turned out to be 4.57 µM.

In the case of Mitoxantrone dihydrochloride, the Cellular toxicity in test [1] was 3 µM. Moreover, on AIF/CHCHD4 (setting [3]), the IC50 was determined as 1.27 µM. The “inhibition of the interaction between the AIF and CHCHD4 proteins (SPR)” value on AIF103-613/CHCHD4 is “capable of inhibiting the interaction”. With Nisoldipine, the IC50 at AIF/CHCHD4 (setting [3]) was found to be 12 µM.

B1: CHCHD4 protein (coiled-coil-helix-coiled-coil-helix domain containing 4) (other)
chain: MSYCRQEGKDRIIFVTKEDHETPSSAELVADDPNDPYEEHGLILPNGNINWNCPCLGGMASGPCGEQFKSAFSCFHYSTEEIKGSDCVDQFRAMQECMQKYPDLYPQEDEDEEEEREKKPAEQAEETAPIEATATKEEEGSS
notes: In SPR the protein was coupled covalently to a CM5 chip; also called MIA40; mitochondrial intermembrane space import and assembly protein 40
With B1, in test [2], the binding result is “binds”.

Values taken from patent US20230221321A1, “METHOD FOR IDENTIFYING COMPOUNDS USEFUL FOR THE TREATMENT OF CANCER” (UNIVERSITÉ PARIS-SACLAY, priority 2020, published 2023).
